# Measured values as given in US8192962B2, “Processes for detecting toxic substances” (Daikin Industries, Ltd., priority 2001, dated 2012).
# Test system: Energy system protein genes
# Assay: DNA chip mRNA expression in yeast, energy system protein genes (Table 4)
# Assay type: cell-based, Saccharomyces cerevisiae S288C
# Procedure: Yeast (Saccharomyces cerevisiae S288C (α SUC2mal mel gap2 CUP1)) were incubated at 25° C. on YPD medium (yeast extract 1%, polypepton 2%, glucose 2%). One of toxic chemical substances was added to the cells at logarithmic growth phase, and the cells were further incubated for two hours. Cells were cultured without any chemical substance in the same condition, and were used as control. Concentrations of the chemical substances were defined to inhibit the growth of the yeast but not lead to death.
# After completion of the incubation, the culture was centrifuged to collect the cells. To the cells, sodium acetate buffer (50 mM sodium acetate, 10 mM EDTA, 1% SDS) was added, and the mixture was shaken at 65° C. for five minutes, followed by returning to room temperature, and obtaining the supernatant, of which the procedures were repeated two times. To the supernatant, ½ amount of a solution of phenol/chloroform was added, and the mixture was centrifuged to give a supernatant, which was added with an equal amount of chloroform, and the mixture was centrifuged to give a supernatant. To the supernatant, an equal amount of isopropanol containing 0.3 M sodium acetate was added, and the mixture was allowed to stand at room temperature for 30 minutes, after which the mixture was centrifuged to give a sediment of the whole RNAs. Seventy % ethanol was added to the sediment, and the mixture was again centrifuged to give a sediment, which was then dried and dissolved in water. mRNA was isolated from the whole RNAs as followings. In view of the fact that a poly A chain is attached to the 3′ terminus of mRNA, a polynucleotide having a poly T structure which was immobilized on the surface of latex beads was used to trap the mRNA, and then the mRNA was washed and eluted with spine column (Oligotex-dT30<Super>mRNA Purification Kit, Takara). Reverse transcription of the mRNA was conducted with a reverse transcriptase (Super Script II Reverse Transcriptase; catalogue No. 18064-014, GibcoBRL) using fluorescence-labeled nucleotides to give cDNAs that were introduced with Cy3-dUTP or Cy5-dUTP during the reverse transcription.
# The labeled cDNAs were dissolved in TE buffer (10mM Tris-HCl/1 mM EDTA, pH8.0), and the solution was dropped on the DNA chip containing the whole genes of yeast (DNA Chip Research Inc. Japan) so that the cDNAs were hybridized on the DNA chip at 65° C. for over 12 hours. The fluoresces intensity of the DNA chip was read with a scanner, and the ratio relative to the fluorescence intensity resulting from the absence of chemical substance was estimated as the following, which is shown in Tables 1 to 9: […]
compound,measurement,setting,value
"[Cl][Hg][Cl] [(3), HgCl2]",The level of expressed mRNA in the presence of chemical substance/The level of expressed mRNA in the absence of chemical substance,yeast gene YJR048W,2.2
same,The level of expressed mRNA in the presence of chemical substance/The level of expressed mRNA in the absence of chemical substance,"yeast gene YJR121W, cells incubated two hours with the chemical substance",3.3
same,The level of expressed mRNA in the presence of chemical substance/The level of expressed mRNA in the absence of chemical substance,yeast gene YJR155W,1.4
same,The level of expressed mRNA in the presence of chemical substance/The level of expressed mRNA in the absence of chemical substance,"yeast gene YKL016C, cells incubated two hours with the chemical substance",0.7
same,The level of expressed mRNA in the presence of chemical substance/The level of expressed mRNA in the absence of chemical substance,"yeast gene YKL060C, cells incubated two hours with the chemical substance",2.5
same,The level of expressed mRNA in the presence of chemical substance/The level of expressed mRNA in the absence of chemical substance,"yeast gene YKL141W, cells incubated two hours with the chemical substance",4.7
same,The level of expressed mRNA in the presence of chemical substance/The level of expressed mRNA in the absence of chemical substance,"yeast gene YKL148C, cells incubated two hours with the chemical substance",3.7
same,The level of expressed mRNA in the presence of chemical substance/The level of expressed mRNA in the absence of chemical substance,"yeast gene YKR009C, cells incubated two hours with the chemical substance",1.5
same,The level of expressed mRNA in the presence of chemical substance/The level of expressed mRNA in the absence of chemical substance,"yeast gene YKR058W, cells incubated two hours with the chemical substance, 25° C., YPD medium",1.4
same,The level of expressed mRNA in the presence of chemical substance/The level of expressed mRNA in the absence of chemical substance,yeast gene YKR097W,1.3
same,The level of expressed mRNA in the presence of chemical substance/The level of expressed mRNA in the absence of chemical substance,"yeast gene YLL041C, cells incubated two hours with the chemical substance",4.6
same,The level of expressed mRNA in the presence of chemical substance/The level of expressed mRNA in the absence of chemical substance,"yeast gene YLR038C, cells incubated two hours with the chemical substance",0.6
same,The level of expressed mRNA in the presence of chemical substance/The level of expressed mRNA in the absence of chemical substance,"yeast gene YLR044C, cells incubated two hours with the chemical substance",2.2
same,The level of expressed mRNA in the presence of chemical substance/The level of expressed mRNA in the absence of chemical substance,"yeast gene YLR134W, cells incubated two hours with the chemical substance",2.3
same,The level of expressed mRNA in the presence of chemical substance/The level of expressed mRNA in the absence of chemical substance,"yeast gene YLR258W, cells incubated two hours with the chemical substance",4.2
same,The level of expressed mRNA in the presence of chemical substance/The level of expressed mRNA in the absence of chemical substance,"yeast gene YLR284C, cells incubated two hours with the chemical substance",3.8
same,The level of expressed mRNA in the presence of chemical substance/The level of expressed mRNA in the absence of chemical substance,"yeast gene YLR295C, cells incubated two hours with the chemical substance, 25° C., YPD medium",1.1
same,The level of expressed mRNA in the presence of chemical substance/The level of expressed mRNA in the absence of chemical substance,"yeast gene YLR304C, cells incubated two hours with the chemical substance",5.0
same,The level of expressed mRNA in the presence of chemical substance/The level of expressed mRNA in the absence of chemical substance,yeast gene YLR345W,1.4
same,The level of expressed mRNA in the presence of chemical substance/The level of expressed mRNA in the absence of chemical substance,"yeast gene YLR354C, cells incubated two hours with the chemical substance",2.3
same,The level of expressed mRNA in the presence of chemical substance/The level of expressed mRNA in the absence of chemical substance,"yeast gene YLR377C, cells incubated two hours with the chemical substance",1.8
same,The level of expressed mRNA in the presence of chemical substance/The level of expressed mRNA in the absence of chemical substance,"yeast gene YLR395C, cells incubated two hours with the chemical substance",2.2
same,The level of expressed mRNA in the presence of chemical substance/The level of expressed mRNA in the absence of chemical substance,yeast gene YML087C,0.8
same,The level of expressed mRNA in the presence of chemical substance/The level of expressed mRNA in the absence of chemical substance,"yeast gene YML120C, cells incubated two hours with the chemical substance",1.9
same,The level of expressed mRNA in the presence of chemical substance/The level of expressed mRNA in the absence of chemical substance,"yeast gene YML129C, cells incubated two hours with the chemical substance",0.9
same,The level of expressed mRNA in the presence of chemical substance/The level of expressed mRNA in the absence of chemical substance,"yeast gene YMR073C, cells incubated two hours with the chemical substance",1.2
same,The level of expressed mRNA in the presence of chemical substance/The level of expressed mRNA in the absence of chemical substance,yeast gene YMR118C,1.4
same,The level of expressed mRNA in the presence of chemical substance/The level of expressed mRNA in the absence of chemical substance,"yeast gene YMR205C, cells incubated two hours with the chemical substance",2.3
same,The level of expressed mRNA in the presence of chemical substance/The level of expressed mRNA in the absence of chemical substance,"yeast gene YMR261C, cells incubated two hours with the chemical substance",3.6
same,The level of expressed mRNA in the presence of chemical substance/The level of expressed mRNA in the absence of chemical substance,"yeast gene YMR267W, cells incubated two hours with the chemical substance, 25° C., YPD medium",0.7
same,The level of expressed mRNA in the presence of chemical substance/The level of expressed mRNA in the absence of chemical substance,"yeast gene YMR323W, cells incubated two hours with the chemical substance",2.9
same,The level of expressed mRNA in the presence of chemical substance/The level of expressed mRNA in the absence of chemical substance,yeast gene YNL071W,1.7
same,The level of expressed mRNA in the presence of chemical substance/The level of expressed mRNA in the absence of chemical substance,"yeast gene YNL202W, cells incubated two hours with the chemical substance",1.2
same,The level of expressed mRNA in the presence of chemical substance/The level of expressed mRNA in the absence of chemical substance,yeast gene YNL241C,4.3
same,The level of expressed mRNA in the presence of chemical substance/The level of expressed mRNA in the absence of chemical substance,yeast gene YNL331C,1.3
same,The level of expressed mRNA in the presence of chemical substance/The level of expressed mRNA in the absence of chemical substance,"yeast gene YOL086C, cells incubated two hours with the chemical substance",2.2
same,The level of expressed mRNA in the presence of chemical substance/The level of expressed mRNA in the absence of chemical substance,yeast gene YOL165C,1.8
same,The level of expressed mRNA in the presence of chemical substance/The level of expressed mRNA in the absence of chemical substance,"yeast gene YOR142W, cells incubated two hours with the chemical substance",3.4
same,The level of expressed mRNA in the presence of chemical substance/The level of expressed mRNA in the absence of chemical substance,"yeast gene YOR178C, cells incubated two hours with the chemical substance",4.8
same,The level of expressed mRNA in the presence of chemical substance/The level of expressed mRNA in the absence of chemical substance,"yeast gene YOR388C, cells incubated two hours with the chemical substance",1.3
same,The level of expressed mRNA in the presence of chemical substance/The level of expressed mRNA in the absence of chemical substance,"yeast gene YPL031C, cells incubated two hours with the chemical substance",1.4
same,The level of expressed mRNA in the presence of chemical substance/The level of expressed mRNA in the absence of chemical substance,"yeast gene YPL061W, cells incubated two hours with the chemical substance",5.0
same,The level of expressed mRNA in the presence of chemical substance/The level of expressed mRNA in the absence of chemical substance,yeast gene YPL088W,0.6
same,The level of expressed mRNA in the presence of chemical substance/The level of expressed mRNA in the absence of chemical substance,yeast gene YPL171C,3.5
same,The level of expressed mRNA in the presence of chemical substance/The level of expressed mRNA in the absence of chemical substance,yeast gene YPL240C,2.4
same,The level of expressed mRNA in the presence of chemical substance/The level of expressed mRNA in the absence of chemical substance,"yeast gene YPL262W, cells incubated two hours with the chemical substance",3.8
same,The level of expressed mRNA in the presence of chemical substance/The level of expressed mRNA in the absence of chemical substance,"yeast gene YPL275W, cells incubated two hours with the chemical substance",1.3
same,The level of expressed mRNA in the presence of chemical substance/The level of expressed mRNA in the absence of chemical substance,"yeast gene YPL276W, cells incubated two hours with the chemical substance",1.6
same,The level of expressed mRNA in the presence of chemical substance/The level of expressed mRNA in the absence of chemical substance,"yeast gene YPR048W, cells incubated two hours with the chemical substance",0.9
same,The level of expressed mRNA in the presence of chemical substance/The level of expressed mRNA in the absence of chemical substance,"yeast gene YPR184W, cells incubated two hours with the chemical substance",5.7
